Data published in patent US5336485A, “Method for protecting animals against tacrine induced cytotoxic injury using sterol compounds” (priority 1993, dated 1994).
Counter-ions that a name gives are not always drawn.

Assays:
[1] = system: rat hepatocytes; assay: Cytotoxicity of various toxic insults (A23187, cadmium, O2, doxorubicin, CCl4, hypoxia) in rat hepatocytes; format: cell-based
Method: (§1) Only viable cells were monitored in the laboratory procedures.
(§2) In vitro experiments were performed to determine if alpha-TS could protect cells from different toxic insults. Under physiological conditions, rat hepatocytes were incubated with medium containing 25 μM alpha-TS. The hepatocytes were exposed to EMS, a potent mutagen and alkylating agent; the ionophore A23187, a membrane active compound that permits the equilibration of divalent cations across cell membranes; cadmium, a heavy metal, environmental contaminant, and known carcinogen who's mechanism of toxicity remains unknown; 95% O2, an excessive oxygen insult that produces an abundance of toxic oxygen free radicals and reactive oxygen intermediates in the cell; doxorubicin (adriamycin), a clinically important antitumor agent with cytotoxic effects proposed to result from its metabolic activation and the generation or reactive oxygen species; carbon tetrachloride (CCl4); and hypoxia (an absence of oxygen followed by reoxygenation).

[2] = as above; format: cell-based; details: rat, hepatocytes; Control (vehicle only, no insult), 25 μM alpha-TS; read-out: % Cell Death
Method: as §1, §2

[3] = Tissue distribution of alpha-tocopherol and alpha-tocopherol ester in rats; format: in vivo, rat
[4] = system: rat hepatocytes; assay: ATP content of rat hepatocyte suspensions; format: cell-based
Excerpt: It is well known that the succinate molecule is utilized by the cell to produce ATP energy. In the tricarboxylic acid cycle, succinate is oxidized by succinate dehydrogenase to produce ATP. Oxidation occurs in the mitochondria and the mitochondria can utilize both succinate formed in the mitochondria or succinate transported to the mitochondria. Increasing ATP production may enhance cellular repair processes as well as normal metabolic processes. For example, the cell's ability to remove free intracellular Ca^2+ during a toxic insult is related to ATP production. Succinate administration stimulates gluconeogenesis to form glucose 6-phosphate which is used for producing energy anaerobically (ATP formation through glycolysis) and for producing reducing equivalents (NADPH formation through the hexose monophosphate shunt needed for lipid and nucleotide biosynthesis and other biosynthetic reductions and enzymatic reactions, e.g., glutathione reductase). An in vitro experiment was conducted to determine the relationship between the release of succinate from alpha-TS and the cellular ATP level. The experiment was performed by incubating a tocopherol analog in a rat hepatocyte suspension and measuring the ATP level at the beginning and end of the test.
Rat hepatocyte suspensions were subjected to 50 mM EMS and the percentage of cell death, the percentage of intracellular K^+ (a metabolic parameter as discussed above), the depletion of ATP and the effect on lipid peroxidation were monitored.

[5] = system: skin lesion; assay: Topical treatment of dermal injury in a human; format: in vivo
Method: In one case, the middle knuckle of the left hand of a person was injured by the removal of a small wart with liquid nitrogen. Two months following the liquid nitrogen insult, the injured area (approximately 1 cm in diameter) was characterized by scar tissue raised several millimeters above the surrounding normal skin. At this time, the lesion was treated by wetting the injured area with alpha-TS dissolved in dimethyl sulfoxide (100mg/ml), daily for a period of two weeks. […] One year following the last alpha-TS treatment, the once injured area remains indistinguishable from the surrounding normal tissue. In another case, a person's lip was severely sunburned. Topical lip cremes and antibiotic cremes were used for several weeks following the ultraviolet insult with minimal therapeutic benefit. At this time, the lesion was treated by wetting the injured area with alpha-TS dissolved in dimethyl sulfoxide (100mg/ml) daily for a period of 1 week. […] In another case, the arch of the left foot of a person was inflamed and blistered from contact dermatitis or stress dermatitis. Six months after unsuccessful treatment on this lesion with betamethasone, the injured area was treated by wetting the injured area with alpha-TS dissolved in dimethyl sulfoxide (100 mg/ml) twice daily for a period of 1 week. […] It is also evident from these cases that alpha-TS is the active component that promotes wound healing and prevents scar formation.

[6] = system: liver; assay: Partial liver ischemia/reperfusion-induced injury in rats; format: in vivo, rat
Method: 20 hours prior to global occlusion, one group of 10 rats was provided with 64 mg cholesterol/kg body weight and 100 mg tris succinate/kg body weight by i.p. injection, and another group of 10 rats was provided with 100 mg cholesteryl succinate/kg body weight. A control group of rats was only partially occluded for the one hour period. Ninety percent of the rats pretreated with cholesteryl succinate tris salt survived while only 10% of those pretreated with the combination of cholesterol and tris succinate survived. Table 22 of a partial ischemia study where male Sprague-Dawley rats were subjected to occlusion of the blood supply to the left lateral and median lobes of the liver for 60 minutes followed by reperfusion for 24 hours. During this time, the normal blood supply to the other lobes of the liver was maintained. […] Serum was obtained for AST and ALT measurements.
^a Partial liver ischemia was induced in male Sprague Dawley rats

[7] = system: male Sprague-Dawley rats; assay: THA-induced side effects in rats; details: 100 mg/kg ip 20 h prior
[8] = (b) ip, peanut oil and ETOH, 1 dose 100 mg/kg, 24 h
[9] = (e) iv, liposomes, 1 dose 100 mg/kg, 24 h
[10] = (f) ip, olive oil, 7 daily doses
[11] = 100 mg/kg ip, 20 hours prior to ischemia

SMILES: Cc1c(C)c2c(c(C)c1OC(=O)CCC(=O)O)CC[C@@](C)(CCC[C@H](C)CCC[C@H](C)CCCC(C)C)O2 [alpha-TS, d-alpha-tocopheryl succinate]
- % Cell Death ([1]; 95% Oxygen, 25 μM alpha-TS (no alpha-TS 57)): 23%
- % Cell Death ([1]; CCl4 2.5 mM, 25 μM alpha-TS (no alpha-TS 63)): 38%
- % Cell Death ([1]; Cadmium 0.1 mM, 25 μM alpha-TS (no alpha-TS 70)): 24%
- % Cell Death ([1]; Doxorubicin 100 μM, 25 μM alpha-TS (no alpha-TS 62)): 28%
- % Cell Death ([1]; Hypoxia 4 hrs N2 and 2 hrs O2, 25 μM alpha-TS (no alpha-TS 70)): 49%
- % Cell Death ([1]; Ionophore A23187 5 μM, 25 μM alpha-TS (no alpha-TS 73)): 24%
- protection from lethal effects of ionophore A23187 ([1]; rat hepatocytes, 25 μM, 5 μM A23187): protected rat hepatocytes from the lethal effects
- cytotoxicity at 25 µM [2]: 21%
- Liver Concentration Ester ([3]; 100 mg/kg ip, 24 h): 119 ± 16 nmol/g
- alpha-TS, Blood [3, 8]: 7 nmoles/gm of Tissue
- alpha-TS, Heart [3, 8]: 47 nmoles/gm of Tissue
- alpha-TS, Kidney [3, 8]: 31 nmoles/gm of Tissue
- alpha-TS, Liver [3, 8]: 119 nmoles/gm of Tissue
- alpha-TS, Lung [3, 8]: 90 nmoles/gm of Tissue
- alpha-TS, Plasma [3, 8]: 8 nmoles/gm of Tissue
- alpha-TS, Blood [3, 9]: 6 nmoles/gm of Tissue
- alpha-TS, Heart [3, 9]: 10 nmoles/gm of Tissue
- alpha-TS, Liver [3, 9]: 322 nmoles/gm of Tissue
- alpha-TS, Lung [3, 9]: 4843 nmoles/gm of Tissue
- alpha-TS, Plasma [3, 9]: 5 nmoles/gm of Tissue
- alpha-TS, Blood [3, 10]: 15 nmoles/gm of Tissue
- alpha-TS, Brain [3, 10]: 6 nmoles/gm of Tissue
- alpha-TS, Heart [3, 10]: 34 nmoles/gm of Tissue
- alpha-TS, Kidney [3, 10]: 44 nmoles/gm of Tissue
- alpha-TS, Liver [3, 10]: 161 nmoles/gm of Tissue
- alpha-TS, Lung [3, 10]: 128 nmoles/gm of Tissue
- accumulation of hepatic alpha-TS ([3]; oral): elimination of both the accumulation of hepatic alpha-TS and protection against CCl4 lethality
- Rate of ATP Depletion ([4]; 25 μM): 1.0 ± 0.1 nmoles/10^6 cell/hr
- Cellular ATP ([4]; 25 μM, 0 Hr): 20.1 ± .5 nmoles/10^6 cells
- Cellular ATP ([4]; 25 μM, 6 Hr): 14.2 ± 0.8 nmoles/10^6 cells
- Rate of ATP Depletion ([4]; 250 μM): 0.6 ± 0.3 nmoles/10^6 cell/hr
- Cellular ATP ([4]; 250 μM, 0 Hr): 15.2 ± 1.6 nmoles/10^6 cells
- Cellular ATP ([4]; 250 μM, 6 Hr): 11.7 ± 2.0 nmoles/10^6 cells
- % Initial Intracellular [ATP] ([4]; 50 mM EMS, 5 Hrs, 25 μM (Table 15)): 45 ± 2 % Initial
- healing of sunburned lip ([5]; topical 100 mg/ml in DMSO daily, 1 week): rapid healing of the lip without scar formation
- healing of injured area (liquid nitrogen) ([5]; topical 100 mg/ml in DMSO daily, two weeks): rapid healing of the injured area with the elimination of scar tissue
- healing of foot lesion (dermatitis) ([5]; topical 100 mg/ml in DMSO twice daily, 1 week): rapid healing of the foot lesion with the dissolution of both inflammation and blisters

SMILES: CC(C)CCC[C@@H](C)[C@H]1CC[C@H]2[C@@H]3CC=C4C[C@@H](OC(=O)CCC(=O)O)CC[C@]4(C)[C@H]3CC[C@]12C [Cholesteryl Succinate tris salt]
- ALT ([6]; 25 mg/kg ip, vehicle 1027±235): 358±38
- ALT [6, 11]: 554 ± 213 Units/L
- AST [6, 11]: 1800 ± 904 Units/L
- ALT ([6]; 100 mg/kg ip, during ischemia): 387 ± 155 Units/L
- AST ([6]; 100 mg/kg ip, during ischemia): 967 ± 68 Units/L
- protection in fed and fasted rats ([6]; rat, in vivo): Protection was observed for both fed and fasted rats
- Survival ([7]; THA 30.0 mg/kg (vehicle 100%)): 40%
- Salivation ([7]; THA 30.0 mg/kg, 0 to 4 scale (vehicle 2.2 ± 0.4)): 4.0 ± 0.0
- Tremors ([7]; THA 30.0 mg/kg, 0 to 4 scale (vehicle 3.0 ± 0.0)): 4.0 ± 0.0
